Experimental data from US10183008B2, “Treatment of prolonged status epilepticus” (University of South Carolina, priority 2011, dated 2019).

Columns and labels:
[1] = tested on: lithium-pilocarpine model of S.E.; assay: Lithium-pilocarpine model of status epilepticus, behavioral seizure scoring (Racine scale); type: in vivo, rat; conditions: for termination of brief behavioral convulsions: postnatal 20-25 day male rats, drug i.p. at onset of first stage 3 convulsion, score 15 min after
Description: The ED50 was determined based on the fit of the sigmoidal dose-response curve.
Experiments were performed on male rats age 5-65 days. SE was induced using lithium pilocarpine. Brief SE was defined as the onset of stage 3 seizures. Prolonged SE was defined as 45 minutes of SE following the first stage 3 seizure.
Status epilepticus was induced in male Sprague Dawley rats (5-65 days old; Harlan Sprague Dawley, Indianapolis, Ind.) by intraperitoneal injection of lithium chloride (LiCl) at 127 mg/kg followed 15-20 hr later by scopolamine methylbromide (2 mg/kg) and then pilocarpine at 60 mg/kg. After pilocarpine injection, the rats were observed continuously for occurrence of behavioral seizures. Seizures were scored according to the Racine scale with slight modifications: 0-normal behavior; 1-immobile, staring, curled-up posture; 2-automatisms: repetitive blinking, chewing, headbobbing, vibrissae twitching, scratching, face-washing; 3-forelimb/hindlimb myoclonic jerking, head tremor; 4-rearing, whole body clonus; 5-loss of posture, rearing and falling. EEG recordings, have established that the cortical electrographic onset of SE corresponds to the onset of forelimb clonus, or stage 3 seizures. Therefore, diazepam or stiripentol was administered either at the onset of S3 seizures (brief SE) or 45 min after S3 seizure onset (prolonged SE). The seizure scores were taken continuously, but specifically 15 mins after the first S3 seizure, and 15 mins after treatment. The scores represented in the data were recorded 15 minutes following treatment. Solutions of lithium, scopolamine, pilocarpine and stiripentol were made fresh on the day of the experiments. Lithium, scopolamine and pilocarpine were dissolved in 0.9% saline. Stiripentol was dissolved in 20% propylene glycol and 80% ethanol. Diazepam was purchased commercially in a solution of 10% propylene glycol and 80% ethanol. All drugs were administered via intraperitoneal (i.p) injection.

[2] = tested on: tonic inhibition (GABAergic tonic current); assay: Brain slice whole-cell electrophysiology: tonic current in dentate granule cells; type: cell-based, rat; conditions: for effect on tonic inhibition: 1 μM DZP, 100 μM STP
[3] = tested on: prolonged SE; conditions: 45 minutes after onset; cited from earlier work
[4] = tested on: GABAAR subunit combinations; conditions: STP 100 μM, GABA 0.3 μM, n=5-9, HEK-293T; cited from earlier work

| Structure (SMILES) | termination of brief behavioral convulsions [1] | pharmacoresistance following prolonged SE (shift of ED50 for seizure termination) ([1]; prolonged SE (45 min after stage 3 onset) vs brief SE) | effect on tonic inhibition [2] | potentiation of tonic current during prolonged SE ([2]; prolonged SE, DZP 1 μM, STP 100 μM, n=3-4) | fold decrease in efficacy at terminating prolonged SE [3] | effect on GABA current [4] | anticonvulsant effect in 60-65 compared to 20-25 day old rats ([1]; age comparison) |
| --- | --- | --- | --- | --- | --- | --- | --- |
| CN1C(=O)CN=C(c2ccccc2)c2cc(Cl)ccc21 [DZP, diazepam] | terminate brief behavioral convulsions | develops pharmacoresistance | increase tonic inhibition | less effective at potentiating tonic current | 9-10 fold | – | – |
| CC(C)(C)C(O)/C=C/c1ccc2c(c1)OCO2 (stereo not drawn) [STP, 1-(3,4-methylenedioxyphenyl)-4,4-dimethylpent-1-en-3-ol] | terminate brief behavioral convulsions | – | increase tonic inhibition | – | – | increases GABA (0.3 μM) current at all tested GABAAR subunit combinations | reduced |
